Each structure is given as a SMILES string. “And” between values parts separate entries of the source, which are not always exact repeats. Equal values may be shown once. Read-outs that look alike come from different tables or passages of the source. Some results are limits rather than exact numbers.

What is called GI50 is the concentration at which growth is held to half of that of the control.

Common to all, as to assay type: cell-based, human
For data set [1], the system named is HL-60. The experiment in a line: Cell proliferation assay: GI50. As to conditions: read-out: GI50. As for the experimental part: (§1) Cell proliferation was analyzed using the CellTiter 96 Aqueous One Solution Cell Proliferation Assay (Promega, Madison, WI). This is a colorimetric method for determining the number of viable cells in proliferation. For the assay, suspension cells were cultured in triplicate at a density of 1 × 10^6 cells/mL in 96-well plates (100.000 cells/well, 100 µL/well), using only the 60 inner wells to avoid any border effects. […] Then, the cells were incubated with 100 μL/well of medium and 20 μL/well of CellTiter 96 Aqueous One Solution reagent for 1–3 h. […] The background absorbance was measured in wells with only cell line medium and solution reagent. First, the average of the absorbance from the control wells was subtracted from all other absorbance values. Data were calculated as the percentage of total absorbance of treated cells/absorbance of non-treated cells. The GI50 values of the different compounds were determined using non-linear regression plots made with GraphPad Prism v5 software.

Data set [2] relates to ML-2. The data set is described as follows: Cell proliferation assay: GI50. The method, then: as §1
The test system of data set [3] is MOLM-13. The experiment in a line: Cell proliferation assay: GI50. The method, then: as §1
The subject of data set [4] is MV4-11. The experiment in a line: Cell proliferation assay: GI50. The method, then:
as §1

The test system of data set [5] is HL-60. The data set is described as follows: Differentiation-apoptosis assay, CD11b / annexin-V / Sytox Green / myeloid markers flow cytometry. Also on record: Cell viability (%): concentration or dose not given beside the values; CD11b levels: unit not given here. The method, then:
Next, the cells were washed twice with phosphate-buffered saline (PBS) and resuspended in 1X Binding Buffer at a concentration of 1 × 10^6 cells/mL. […] Finally, after the addition of 400 µL of 1X Binding Buffer to each tube, samples were collected on a BD FACSCanto flow cytometer (Becton Dickinson, San Jose, CA, USA) and analyzed using FlowJo software.
Then, 1 million cells (volume of 250 µL) were added and incubated for 30 min at room temperature in darkness. After 10 min incubation at room temperature with 2 mL of FACSLysing 1X, cells were centrifuged at 540 g for 5 min and washed twice with FACSBuffer. Finally, after centrifugation at 540 g for 5 min cells were resuspended in FACSBuffer.
In general terms: Flow cytometry measures light scatter and fluorescence of single cells or particles in a stream.

The subject of data set [6] is ML-2. The data set is described as above. More on the design: Cell viability: concentration or dose not given beside the values; CD11b levels: unit not given here. The method, then: (§2) Next, the cells were washed twice with phosphate-buffered saline (PBS) and resuspended in 1X Binding Buffer at a concentration of 1 × 10^6 cells/mL. An 8-µL aliquot of APC-CD11b (BD Pharmingen, Franklin Lakes, NJ, USA) and 1 µL of FITC annexin-V (AV) (BD Pharmingen, Franklin Lakes, NJ, USA) antibodies were added and incubated for 15 min at room temperature in the dark. Finally, after the addition of 400 µL of 1X Binding Buffer to each tube, samples were collected on a BD FACSCanto flow cytometer (Becton Dickinson, San Jose, CA, USA) and analyzed using FlowJo software.
(§3) For the rest of experiments, the mix of antibodies (2 µL of BV786-CD13, Cat No, 744748 BD; 1 µL of diluted 1:10 antibody of PB-HLADR, Cat No 307633, Biolegend; 5 µL of APCH7-CD14, Cat No 641394, BD) was added to 10 µL of Brilliant Stain Buffer Plus (Becton Dickinson, San Jose, CA, USA). Then, 1 million cells (volume of 250 µL) were added and incubated for 30 min at room temperature in darkness. After 10 min incubation at room temperature with 2 mL of FACSLysing 1X, cells were centrifuged at 540 g for 5 min and washed twice with FACSBuffer. Finally, after centrifugation at 540 g for 5 min cells were resuspended in FACSBuffer.

Data set [7] relates to MOLM-13. The description is as above. More on the design: Cell viability (%): concentration or dose not given beside the values; CD11b levels: unit not given here. The method, then: as §2, §3
The test system of data set [8] is MV4-11. Described as above. More on the design: Cell viability (%): concentration or dose not given beside the values; CD11b levels: unit not given here. As for the experimental part: as §2, §3
The subject of data set [9] is HL-60. The data set is described as follows: q-RT-PCR of MYC, CDKN2A, CDKN1A, GATA2, TAL1, CEBPA, SPI1. As to conditions: HL-60 treated daily for 48 h; replicates (Fig 6F). The method, then:
(§4) RNA was extracted with TRIzol Reagent (Invitrogen) according to the manufacturer’s instructions. First, cDNA was synthesized from 1 µg of total RNA using the PrimeScript RT reagent Kit (Perfect Real Time) (Cat No RR037A, TaKaRa) following the manufacturer’s instructions. The quality of cDNA was checked by a multiplex PCR that amplifies PBGD, ABL, BCR and β2-MG genes. […] The following program conditions were used for the q-PCR: 50 °C for 2 min, 95 °C for 60 s following by 45 cycles at 95 °C for 15 s and 60 °C for 60 s; melting program, one cycle at 95 °C for 15 s, 40 °C for 60 s, and 95 °C for 15 s. The relative expression of each gene was quantified by the […] method using the gene GUS as an endogenous control. The sequence of primers used can be found in Supplementary Table 10.

For data set [10], the system named is ML-2. The data set is described as above. As to conditions: ML-2 treated daily for 48 h; replicates (Fig 6G). As for the experimental part:
as §4

In data set [11] the test system is MOLM-13. Described as above. Particulars: MOLM-13, daily treatment for 48 h, replicates 1-3. The method, then: as §4
In data set [12] the test system is MV4-11. The description is as above. As to conditions: MV4-11, daily treatment for 48 h, replicates 1-3. The method, then: as §4
The mark [13] stands for this setting: HL-60, replicates 1-3, µM for the other inhibitors.
Setting [14] is: ML-2, replicates 1-3, µM for the other inhibitors.
[15] abbreviates: MOLM-13, replicates 1-3, µM for the other inhibitors.
The mark [16] stands for this setting: MV4-11, replicates 1-3, µM for the other inhibitors.
The mark [17] stands for this setting: HL-60, 48 h treatment, replicates 1-3 (Suppl. Fig. 5A).
The mark [18] stands for this setting: ML-2, 48 h, replicates (Fig 4A).
Setting [19] is: MOLM-13, 48 h treatment, replicates 1-3 (Suppl. Fig. 5A).
Where [20] appears, read: MV4-11, 48 h treatment, replicates 1-3 (Suppl. Fig. 5A).

In the case of `Cc1sc2c(c1C)C(c1ccc(Cl)cc1)=N[C@@H](CC(=O)OC(C)(C)C)c1nnc(C)n1-2` [JQ1, reference compound], the GI50 in the data set on HL-60 [1] (HL-60, 48 h) was over 10 µM; in the data set on HL-60 [1] (setting [13]) it was over 10 µM; with ML-2 [2] (ML-2, 48 h) it was over 10 µM; with ML-2 [2] (setting [14]), over 10 µM; in the data set with MOLM-13 [3] (MOLM-13, 48 h), over 10 µM; in the data set on MOLM-13 [3] (setting [15]), over 10 µM. Moreover, the GI50 in the data set with MV4-11 [4] (MV4-11, 48 h) was over 10 µM; in the data set on MV4-11 [4] (setting [16]), over 10 µM. Moreover, the CD11b levels in the data set on HL-60 [5] (HL-60 treated daily for 48 h, replicates (Fig 6D)) is 14.4 and 10.4 and 18.9; with ML-2 [6] (ML-2 treated daily for 48 h, replicates (Fig 6E)), 12.1 and 9.5 and 15.4; with MOLM-13 [7] (MOLM-13, daily treatment for 48 h, replicates 1-3 (Suppl. Fig. 9A)) it was 22.1 and 20.7 and 18.1; with MV4-11 [8] (MV4-11, daily treatment for 48 h, replicates 1-3 (Suppl. Fig. 9A)) it was 12.1 and 10.6 and 16.7. For the same compound, the “q-PCR of CEBPA” value in the data set on HL-60 [9] was -0.3248 log10 (2-ΔΔCt) and -0.277 log10 (2-ΔΔCt) and -0.3773 log10 (2-ΔΔCt); in the data set with ML-2 [10] it was 0.003145 log10 (2-ΔΔCt) and -0.05186 log10 (2-ΔΔCt) and 0.00217 log10 (2-ΔΔCt). In addition, the “q-PCR of GATA2” value in the data set on HL-60 [9] was -0.4169 log10 (2-ΔΔCt) and -0.4604 log10 (2-ΔΔCt) and -0.5063 log10 (2-ΔΔCt); with ML-2 [10], -0.7948 log10 (2-ΔΔCt) and -0.4733 log10 (2-ΔΔCt) and -0.5146 log10 (2-ΔΔCt). Moreover, the “q-PCR of MYC” value with HL-60 [9] is -1.0533 log10 (2-ΔΔCt) and -1.072 log10 (2-ΔΔCt) and -1.203 log10 (2-ΔΔCt); in the data set with ML-2 [10], -1.0744 log10 (2-ΔΔCt) and -1.048 log10 (2-ΔΔCt) and -1.0236 log10 (2-ΔΔCt). Also, the “q-PCR of SPI1” value was 0.1686 log10 (2-ΔΔCt) and 0.1558 log10 (2-ΔΔCt) and 0.1908 log10 (2-ΔΔCt) in the data set with HL-60 [9]; -0.3978 log10 (2-ΔΔCt) and -0.4936 log10 (2-ΔΔCt) and -0.3253 log10 (2-ΔΔCt) in the data set on ML-2 [10]. Besides, the “q-PCR of TAL1” value in the data set with HL-60 [9] is 0.3073 log10 (2-ΔΔCt); with ML-2 [10], -0.9571 log10 (2-ΔΔCt) and -0.8702 log10 (2-ΔΔCt) and -0.7161 log10 (2-ΔΔCt). Further, the “q-PCR of CEBPA, log10 (2-ΔΔCt)” value with MOLM-13 [11] is -0.258 and -0.1482 and -0.3669; with MV4-11 [12], 0.0684 and 0.023 and -0.05782. In addition, the “q-PCR of GATA2, log10 (2-ΔΔCt)” value with MOLM-13 [11] was -0.2598 and -0.4259 and -0.3898; in the data set with MV4-11 [12] it was -0.3858 and -0.3755 and -0.4115. In addition, the “q-PCR of MYC, log10 (2-ΔΔCt)” value in the data set on MOLM-13 [11] is -0.7137 and -0.6985 and -0.8216; with MV4-11 [12], -0.6192 and -0.5693 and -0.4576. Moreover, the “q-PCR of SPI1, log10 (2-ΔΔCt)” value was -0.9325 and -0.8224 and -0.9326 in the data set with MOLM-13 [11]; -0.1789 and -0.2041 and -0.25 in the data set on MV4-11 [12]. The “q-PCR of TAL1, log10 (2-ΔΔCt)” value in the data set with MOLM-13 [11] was -0.4726 and -0.5813 and -0.6816; in the data set with MV4-11 [12], -1.126 and -0.6585 and -1.208.
For `CN1CCc2c(c3ccccc3n2Cc2ccc(C(=O)NO)cc2)C1` [Tubastatin, reference compound], the concentration for 50% growth inhibition (GI50) was over 10 µM in the data set on HL-60 [1] (HL-60, 48 h); over 10 µM in the data set with HL-60 [1] (setting [13]); over 10 µM with ML-2 [2] (ML-2, 48 h); over 10 µM in the data set on ML-2 [2] (setting [14]); over 10 µM in the data set on MOLM-13 [3] (MOLM-13, 48 h); over 10 µM in the data set on MOLM-13 [3] (setting [15]). In addition, the GI50 is over 10 µM in the data set with MV4-11 [4] (MV4-11, 48 h) and over 10 µM in the data set on MV4-11 [4] (setting [16]). Further, the “CD11b (%)” value with HL-60 [5] (setting [17]) was 26.8% and 22.6% and 20.1%; in the data set with MOLM-13 [7] (setting [19]), 29.6% and 36.5% and 39.8%; in the data set with MV4-11 [8] (setting [20]), 9.3% and 10.2% and 12.6%. The “Cell viability (%)” value with HL-60 [5] (setting [17]) was 69.4% and 76.8% and 76.1%; with MOLM-13 [7] (setting [19]) it was 74.1% and 65.3% and 78.4%; with MV4-11 [8] (setting [20]), 89.7% and 84.3% and 92.1%. The CD11b with ML-2 [6] (setting [18]) was 28.3% and 27.1% and 25.0%. The Cell viability in the data set on ML-2 [6] (setting [18]) was 83.1% and 89.7% and 79.2%.
